Laboratory results as given in patent US20090215857A1 (Pfizer Products Inc., priority 2005, published 2009).

Legend:
[1] = molecular target: T1, human serotonin transporter (Homo sapiens, UniProt P31645); assay: hSERT receptor binding ([125I]-RTI-55 radioligand); conditions: membranes of HEK-293 cells transfected with human serotonin transporter cDNA; 50 pM [125I]-RTI-55; IC50 converted by Cheng-Prusoff; read-out: SERT Ki
T1 construct: expressed in transfected cells; host or cells: HEK-293
Method: (§1) Cell pastes of HEK-293 cells transfected with a human serotonin transporter cDNA were prepared. The cell pastes were resuspended in 400 to 700 ml of Krebs-HEPES assay buffer (25 mM HEPES, 122 mM NaCl, 3 mM KCl, 1.2 mM MgSO4, 1.3 mM CaCl2, and 11 mM glucose, pH 7.4) with a Polytron homogenizer at Setting 7 for 30 seconds. Aliquots of membranes (˜2.5 mg/ml protein) were stored in liquid nitrogen until used.
Assays were set up in FlashPlates pre-coated with 0.1% PEI in a total volume of 250 μl containing: test compound (10^−5M to 10^−12M), cell membranes, and 50 pM [^125I]-RTI-55 (Perkin Elmer, NEX-272; specific activity 2200 Ci/mmol). The reaction was incubated and gently agitated for 90 minutes at room temperature, and terminated by removal of assay volume. Plates were covered, and bound [^125I]-RTI-55 was determined using a Wallac Trilux Beta Plate Counter. Test compounds were run in duplicate, and specific binding was defined as the difference between binding in the presence and absence of 10 μM citalopram.
Excel and GraphPad Prism software were used for data calculation and analysis. IC50 values were converted to Ki values using the Cheng-Prusoff equation.

[2] = molecular target: T2, human norepinephrine transporter (Homo sapiens, UniProt P23975); assay: hNET receptor binding ([125I]-RTI-55 radioligand); conditions: membranes of HEK-293 cells transfected with human norepinephrine transporter cDNA; 50 pM [125I]-RTI-55; IC50 converted by Cheng-Prusoff; read-out: NET Ki
T2 construct: expressed in transfected cells; host or cells: HEK-293
Method: as §1, with “norepinephrine” for “serotonin”, “setting” for “Setting”, “(5” for “(˜2.5”
The binding assay was set up in Beckman deep-well polypropylene plates with a total volume of 250 μl containing: test compound (10^−5M to 10^−12M), cell membranes, and 50 pM [^125I]-RTI-55 (Perkin Elmer, NEX-272; specific activity 2200 Ci/mmol). The reaction was incubated by gentle agitation for 90 minutes at room temperature and was terminated by filtration through Whatman GF/C filter plates using a Brandel 96-well plate harvester. Scintillation fluid (100 μl) was added to each well, and bound [^125I]-RTI-55 was determined using a Wallac Trilux Beta Plate Counter. Test compounds were run in duplicate, and specific binding was defined as the difference between binding in the presence and absence of 10 μM desipramine.
Excel and GraphPad Prism software were used for data calculation and analysis. IC50 values were converted to K, values using the Cheng-Prusoff equation.

T2 sequence (P23975 whole entry): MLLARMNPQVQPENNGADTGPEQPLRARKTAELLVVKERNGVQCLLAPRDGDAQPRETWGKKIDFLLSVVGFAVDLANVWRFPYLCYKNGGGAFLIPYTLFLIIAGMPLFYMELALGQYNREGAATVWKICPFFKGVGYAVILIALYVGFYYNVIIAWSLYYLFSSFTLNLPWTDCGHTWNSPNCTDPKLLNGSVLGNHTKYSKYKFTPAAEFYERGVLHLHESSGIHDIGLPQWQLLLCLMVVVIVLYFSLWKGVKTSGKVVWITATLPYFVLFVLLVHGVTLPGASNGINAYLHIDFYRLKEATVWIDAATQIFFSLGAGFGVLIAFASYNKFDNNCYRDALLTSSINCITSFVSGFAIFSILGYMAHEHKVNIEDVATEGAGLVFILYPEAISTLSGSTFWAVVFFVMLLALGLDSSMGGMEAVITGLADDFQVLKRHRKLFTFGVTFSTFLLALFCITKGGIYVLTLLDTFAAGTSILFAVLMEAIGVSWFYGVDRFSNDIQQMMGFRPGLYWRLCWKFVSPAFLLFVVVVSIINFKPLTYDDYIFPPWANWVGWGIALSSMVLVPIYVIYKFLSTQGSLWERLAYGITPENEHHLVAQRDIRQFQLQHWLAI
T1 sequence (P31645 whole entry): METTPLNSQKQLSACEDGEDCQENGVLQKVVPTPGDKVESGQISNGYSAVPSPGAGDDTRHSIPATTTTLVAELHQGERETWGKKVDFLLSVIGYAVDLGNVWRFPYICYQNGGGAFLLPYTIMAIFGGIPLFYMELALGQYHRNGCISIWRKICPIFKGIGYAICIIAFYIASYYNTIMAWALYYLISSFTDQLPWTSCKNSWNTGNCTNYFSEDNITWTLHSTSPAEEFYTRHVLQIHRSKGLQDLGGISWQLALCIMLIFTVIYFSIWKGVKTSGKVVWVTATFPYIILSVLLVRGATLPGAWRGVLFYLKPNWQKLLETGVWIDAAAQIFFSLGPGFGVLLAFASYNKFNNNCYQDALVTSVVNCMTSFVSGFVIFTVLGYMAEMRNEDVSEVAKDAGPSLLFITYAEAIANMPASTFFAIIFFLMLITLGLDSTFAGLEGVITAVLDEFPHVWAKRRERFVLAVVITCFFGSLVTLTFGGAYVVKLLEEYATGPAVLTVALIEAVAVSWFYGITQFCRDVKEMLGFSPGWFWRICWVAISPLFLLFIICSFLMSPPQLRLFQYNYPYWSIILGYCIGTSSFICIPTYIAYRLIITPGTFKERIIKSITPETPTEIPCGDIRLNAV

SMILES	Ki [1] [nM]	Ki [2] [nM]
COc1ccc(-c2ccccc2CO[C@H]2CCNC2)cc1C [Example D-2, (S)-3-(4′-Methoxy-3′-methyl-biphenyl-2-ylmethoxy)-pyrrolidine]	261	8.42
Fc1ccccc1-c1ccccc1CO[C@H]1CCNC1 [Example D-3, (S)-3-(2′-Fluoro-biphenyl-2-ylmethoxy)-pyrrolidine]	304	14.7
Clc1ccc(-c2ccccc2CO[C@H]2CCNC2)cc1Cl [Example D-4, (S)-3-(3′,4′-Dichloro-biphenyl-2-ylmethoxy)-pyrrolidine]	18.3	15.1
CC(C)N(C(=O)c1ccccc1-c1ccccc1CO[C@H]1CCNC1)C(C)C [Example D-5, (S)-2′-(Pyrrolidin-3-yloxymethyl)-biphenyl-2-carboxylic acid diisopropylamide]	197	17.9
Fc1cccc(-c2ccccc2CO[C@H]2CCNC2)c1 [Example D-6, (S)-3-(3′-Fluoro-biphenyl-2-ylmethoxy)-pyrrolidine]	18.4	18.5
Cc1ccc(-c2ccccc2CO[C@H]2CCNC2)cc1C [Example D-7, (S)-3-(3′,4′-Dimethyl-biphenyl-2-ylmethoxy)-pyrrolidine]	110	21.3
Fc1ccc(F)c(-c2ccccc2CO[C@H]2CCNC2)c1 [Example D-8, (S)-3-(2′,5′-Difluoro-biphenyl-2-ylmethoxy)-pyrrolidine]	208	21.9
Fc1ccccc1-c1ccccc1CO[C@H]1CCNC1 [Example D-10, (S)-3-(2′-Fluoro-biphenyl-2-ylmethoxy)-pyrrolidine]	317	26.5
Cc1cc(-c2ccccc2CO[C@H]2CCNC2)ccc1F [Example D-11, (S)-3-(4′-Fluoro-3′-methyl-biphenyl-2-ylmethoxy)-pyrrolidine]	26.7	39.6
Clc1ccc(-c2ccccc2CO[C@H]2CCNC2)cc1 [Example D-12, (S)-3-(4′-Chloro-biphenyl-2-ylmethoxy)-pyrrolidine]	101	41.6
Clc1cccc(-c2ccccc2CO[C@H]2CCNC2)c1 [Example D-13, (S)-3-(3′-Chloro-biphenyl-2-ylmethoxy)-pyrrolidine]	21.6	43.8
Fc1ccc(-c2ccccc2CO[C@H]2CCNC2)cc1Cl [Example D-14, (S)-3-(3′-Chloro-4′-fluoro-biphenyl-2-ylmethoxy)-pyrrolidine]	15.1	47.3
c1ccc(-c2cccc3ccccc23)c(CO[C@H]2CCNC2)c1 [Example D-15, (S)-3-(2-Naphthalen-1-yl-benzyloxy)-pyrrolidine]	272	55.4
Cc1cccc(-c2ccccc2CO[C@H]2CCNC2)c1 [Example D-16, (S)-3-(3′-Methyl-biphenyl-2-ylmethoxy)-pyrrolidine]	24.7	63.5
FC(F)(F)Oc1cccc(-c2ccccc2CO[C@H]2CCNC2)c1 [Example D-17, (S)-3-(3′-Trifluoromethoxy-biphenyl-2-ylmethoxy)-pyrrolidine]	30.6	87
Fc1ccc(Cl)c(-c2ccccc2CO[C@H]2CCNC2)c1 [Example D-18, (S)-3-(2′-Chloro-5′-fluoro-biphenyl-2-ylmethoxy)-pyrrolidine]	218	102
Clc1ccccc1-c1ccccc1CO[C@H]1CCNC1 [Example D-19, (S)-3-(2′-Chloro-biphenyl-2-ylmethoxy)-pyrrolidine]	346	108
CSc1cccc(-c2ccccc2CO[C@H]2CCNC2)c1 [Example D-20, (S)-3-(3′-Methylsulfanyl-biphenyl-2-ylmethoxy)-pyrrolidine]	24.8	108
COc1ccc(-c2ccccc2CO[C@H]2CCNC2)cc1F [Example D-21, (S)-3-(3′-Fluoro-4′-methoxy-biphenyl-2-ylmethoxy)-pyrrolidine]	431	113
COc1cccc(-c2ccccc2CO[C@H]2CCNC2)c1 [Example D-22, (S)-3-(3′-Methoxy-biphenyl-2-ylmethoxy)-pyrrolidine]	27.3	139

SMILES	Ki [1] [nM]	Ki [2] [nM]
COc1ccccc1-c1ccccc1CO[C@H]1CCNC1 [Example D-24, (S)-3-(2′-Methoxy-biphenyl-2-ylmethoxy)-pyrrolidine]	1260	230
COc1c(C)cc(-c2ccccc2CO[C@H]2CCNC2)cc1C [Example D-25, (S)-(4′-Methoxy-3′,5′-dimethyl-biphenyl-2-ylmethoxy)-pyrroldine]	124	269
Cc1ccccc1-c1ccccc1CO[C@H]1CCNC1 [Example D-26, (S)-3-(2′-Methyl-biphenyl-2-ylmethoxy)-pyrrolidine]	457	277
Cc1cc(C)cc(-c2ccccc2CO[C@H]2CCNC2)c1 [Example D-27, (S)-3-(3′,5′-Dimethyl-biphenyl-2-ylmethoxy)-pyrrolidine]	91.9	295
COc1ccc(-c2ccccc2CO[C@H]2CCNC2)cc1 [Example D-28, (S)-3-(4′-Methoxy-biphenyl-2-ylmethoxy)-pyrrolidine]	1100	301
c1ccc(-c2ccc3ccccc3c2)c(CO[C@H]2CCNC2)c1 [Example D-29, (S)-3-(2-Naphthalen-2-yl-benzyloxy)-pyrroldine]	172	314
N#Cc1cccc(-c2ccccc2CO[C@H]2CCNC2)c1 [Example D-30]	285	371
COc1ccccc1-c1ccccc1CO[C@H]1CCNC1 [Example D-31, (S)-3-(2′-Methoxy-biphenyl-2-ylmethoxy)-pyrrolidine]	3100	464
c1ccc(-c2ccc3c(c2)CCO3)c(CO[C@H]2CCNC2)c1 [Example D-32, (S)-3-[2-(2,3-Dihydro-benzofuran-5-yl)-benzyloxy]-pyrrolidine]	549	516
Cc1cccc(-c2ccccc2CO[C@H]2CCNC2)c1C [Example D-33, (S)-3-(2′,3′-Dimethyl-biphenyl-2-ylmethoxy)-pyrrolidine]	28.9	526
c1ccc(-c2ccccc2-c2ccccc2CO[C@H]2CCNC2)cc1 [Example D-34, (S)-3-([1,1′,2′,1″]Terphenyl-2-ylmethoxy)-pyrrolidine]	2750	554
Cc1cccc(-c2ccccc2CO[C@H]2CCNC2)c1C [Example D-35, (S)-3-(2′,3′-Dimethyl-biphenyl-2-ylmethoxy)-pyrrolidine]	59.6	585
COc1ccc(-c2ccccc2CO[C@H]2CCNC2)cc1OC [Example D-36, (S)-3-(3′,4′-Dimethoxy-biphenyl-2-ylmethoxy)-pyrrolidine]	150	635
FC(F)(F)Oc1ccccc1-c1ccccc1CO[C@H]1CCNC1 [Example D-37, (S)-3-(2′-Trifluoromethoxy-biphenyl-2-ylmethoxy)-pyrrolidine]	5650	1000
OCc1cccc(-c2ccccc2CO[C@H]2CCNC2)c1 [Example D-38, (S)-[2′-(Pyrrolidin-3-yloxymethyl)-biphenyl-3-yl]-methanol]	39.3	1190
CCOc1ccc(-c2ccccc2CO[C@H]2CCNC2)cc1 [Example D-40, (S)-3-(4′-Ethoxy-biphenyl-2-ylmethoxy)-pyrrolidine]	919	1260
CC(=O)c1cccc(-c2ccccc2CO[C@H]2CCNC2)c1 [Example D-41]	345	1280
CC(=O)c1ccccc1-c1ccccc1CO[C@H]1CCNC1 [Example D-42, (S)-1-[2′-(Pyrrolidin-3-yloxymethyl)-biphenyl-2-yl]-ethanone]	≥ 10000	2540
FC(F)(F)Oc1ccc(-c2ccccc2CO[C@H]2CCNC2)cc1 [Example D-43, (S)-3-(4′-Trifluoromethoxy-biphenyl-2-ylmethoxy)-pyrrolidine]	16.9	2670
